Experimental data from US11214803B2, “Modulators of YAP1 expression” (Ionis Pharmaceuticals, Inc., priority 2019, dated 2022).

Columns and labels:
Yap1 mRNA [1] = assay: Yap1 mRNA in CAL33 cells, RNA analysis (Example 36); assay type: cell-based, human; conditions: free uptake, approximately 48 hours
Experimental: Modified oligonucleotides described in the studies above were tested at various doses in tongue squamous cell carcinoma line CAL33. A control oligonucleotide 792169, described herein above, was also tested.
(§1) Cultured CAL33 cells at a density of 5000 cells per well were treated using free uptake with modified oligonucleotides diluted to concentrations described in the tables below. After approximately 48 hours, Yap1 mRNA levels were measured as previously described using the Human Yap1 primer-probe set RTS4814. Yap1 mRNA levels were normalized to actin-beta content, as measured by primer probe set RTS5002. Results are presented in the tables below as percent control of the amount of Yap1 mRNA relative to untreated control cells (% UTC).

[2] = Tolerability in CD-1 mice, body and organ weights (Example 19); assay type: in vivo; conditions: male CD-1 mice, 50 mg/kg s.c. twice a week for four weeks (8 treatments), end of study (day 26)
Experimental: Groups of four male CD-1 mice at 4-6 weeks of age (obtained from Charles River) were injected subcutaneously twice a week for four weeks (for a total of 8 treatments) with 50 mg/kg of modified oligonucleotides. One group of male CD-1 mice was injected with PBS. Mice were euthanized on day 26 post start of treatment (24 hrs following the final administration).
Body weights of CD-1 mice were measured at the end of the study, and the average body weight for each group is presented in the table below. Modified oligonucleotides that caused any changes in organ weights outside the expected range for modified oligonucleotides were excluded from further studies.

Yap1 mRNA [3] = assay: Yap1 mRNA in Detroit-562 cells, RNA analysis (Example 38); assay type: cell-based, human; conditions: free uptake, approximately 48 hours
Experimental: Modified oligonucleotides described in the studies above were tested at various doses in pharynx carcinoma cell line Detroit-562. A control oligonucleotide 792169, described herein above, was also tested.
as §1, with “Detroit-562” for “CAL33”

Yap1 mRNA [4] = assay: Yap1 mRNA in CAL27 cells, RNA analysis (Example 37); assay type: cell-based, human; conditions: free uptake, approximately 48 hours
Experimental: (§2) Modified oligonucleotides described in the studies above were tested at various doses in tongue squamous cell carcinoma line CAL27. A control oligonucleotide 792169, described herein above, was also tested.
as §1, with “CAL27” for “CAL33”

BICR56 cells = assay: Cell proliferation assay in BICR56 cells, CellTiter-Glo (Example 33); assay type: cell-based, human; conditions: free uptake, approximately 144 hours
Experimental: Modified oligonucleotides described in the studies above were tested at various doses in squamous cell carcinoma adherent keratinocyte cell line BICR56. A control oligonucleotide 792169 was also tested.
(§3) Cultured BICR56 cells at a density of 1000 cells/well were treated using free uptake with modified oligonucleotides diluted to concentrations described in the tables below. After approximately 144 hours, cell proliferation was measured using the luminescent cell viability CellTiter-Glo® 2.0 Assay (Promega). Results are presented in the tables below as percent control of the amount of luminescence in samples treated with modified oligonucleotides relative to untreated control cells (% UTC).

CAL27 cells = assay: Cell proliferation assay in CAL27 cells, CellTiter-Glo (Example 37); assay type: cell-based, human; conditions: free uptake, approximately 144 hours
Experimental: as §2
as §3, with “CAL27” for “BICR56”

Yap1 mRNA [5] = assay: Yap1 mRNA in SNU-1066 cells, RNA analysis (Example 44); assay type: cell-based, human; conditions: free uptake, approximately 48 hours
Experimental: Modified oligonucleotides described in the studies above were tested at various doses in laryngeal squamous cell carcinoma line SNU-1066. A control oligonucleotide 792169, described herein above, was also tested.
as §1, with “SNU-1066” for “CAL33”

[6] = Cynomolgus monkey tolerability, urine analysis (Example 34); conditions: cynomolgus monkeys, 35 mg/kg subcutaneously, day 44
Experimental: Prior to the study, the monkeys were kept in quarantine during which the animals were observed daily for general health. The monkeys were 2-4 years old and weighed 2-4 kg. Eleven groups of 4 randomly assigned male cynomolgus monkeys each were injected subcutaneously with Ionis oligonucleotide or saline in a clock-wise rotation between four different sites on the back. Following loading doses on days 1, 3, 5 and 7, the monkeys were dosed once per week (on days 14, 21, 28, 35, and 42) with 35 mg/kg of Ionis oligonucleotide.
Food was removed overnight the day before fresh urine collection, but water was supplied. Fresh urine samples for urinalysis and urine chemistry were collected from all animals using a clean cage pan on wet ice (first in the morning) on day 44. Urinalysis/Urine Chemistry parameters creatinine (UCRE), microprotein (UTP), urine microalbumin (UALB), and protein/creatinine (P/C) ratio were measured using a Toshiba 120FR automated chemistry analyzer (Toshiba Co., Japan).

Yap1 mRNA [7] = assay: Yap1 mRNA in SCC-15 cells, RNA analysis (Example 41); assay type: cell-based, human; conditions: free uptake, approximately 48 hours
Experimental: Modified oligonucleotides described in the studies above were tested at various doses in tongue squamous cell carcinoma cell line SCC-15. A control oligonucleotide 792169, described herein above, was also tested.
as §1, with “SCC-15” for “CAL33”

1198440 (AAGTGTATGTCAGAAG; cEt, 2'-MOE, 5-methylcytosine, phosphorothioate modifications, further chemistry not given here) [compound 1198440]
human Yap1 mRNA expression (Yap1 mRNA [1]; 0.04 μM): 43 % UTC | human Yap1 mRNA expression (Yap1 mRNA [1]; 0.2 μM): 14 % UTC | human Yap1 mRNA expression (Yap1 mRNA [1]; 1 μM): 5 % UTC | human Yap1 mRNA expression (Yap1 mRNA [1]; 5 μM): 5 % UTC | Kidney weight [2]: 0.46 g | Liver weight [2]: 1.97 g | Spleen weight [2]: 0.18 g | body weight [2]: 35 g | human Yap1 mRNA expression (Yap1 mRNA [3]; 0.04 μM): 32 % UTC | human Yap1 mRNA expression (Yap1 mRNA [3]; 0.2 μM): 8 % UTC | human Yap1 mRNA expression (Yap1 mRNA [3]; 1 μM): 3 % UTC | human Yap1 mRNA expression (Yap1 mRNA [3]; 5 μM): 2 % UTC | human Yap1 mRNA expression (Yap1 mRNA [4]; 0.08 μM): 23 % UTC | human Yap1 mRNA expression (Yap1 mRNA [4]; 0.4 μM): 6 % UTC | human Yap1 mRNA expression (Yap1 mRNA [4]; 2 μM): 4 % UTC | human Yap1 mRNA expression (Yap1 mRNA [4]; 10 μM): 4 % UTC | Antiproliferative effect (cell proliferation, luminescence) (BICR56 cells; 0.04 μM): 28 % UTC | Antiproliferative effect (cell proliferation, luminescence) (BICR56 cells; 0.2 μM): 10 % UTC | Antiproliferative effect (cell proliferation, luminescence) (BICR56 cells; 1 μM): 6 % UTC | Antiproliferative effect (cell proliferation, luminescence) (BICR56 cells; 5 μM): 4 % UTC | Antiproliferative effect (cell proliferation, luminescence) (CAL27 cells; 0.08 μM): 86 % UTC | Antiproliferative effect (cell proliferation, luminescence) (CAL27 cells; 0.4 μM): 85 % UTC | Antiproliferative effect (cell proliferation, luminescence) (CAL27 cells; 2 μM): 83 % UTC | Antiproliferative effect (cell proliferation, luminescence) (CAL27 cells; 10 μM): 51 % UTC | human Yap1 mRNA expression (Yap1 mRNA [5]; 0.04 μM): 70 % UTC | human Yap1 mRNA expression (Yap1 mRNA [5]; 0.2 μM): 28 % UTC | human Yap1 mRNA expression (Yap1 mRNA [5]; 1 μM): 7 % UTC | human Yap1 mRNA expression (Yap1 mRNA [5]; 5 μM): 2 % UTC | UALB [6]: 0.2 mg/dL | UCRE [6]: 53 mg/dL | UTP [6]: 13 mg/dL | human Yap1 mRNA expression (Yap1 mRNA [7]; 0.04 μM): 39 % UTC | human Yap1 mRNA expression (Yap1 mRNA [7]; 0.2 μM): 10 % UTC | human Yap1 mRNA expression (Yap1 mRNA [7]; 1 μM): 4 % UTC | human Yap1 mRNA expression (Yap1 mRNA [7]; 5 μM): 2 % UTC
